Source: patent US9408393B2, “Bismuth-thiols as antiseptics for agricultural, industrial and other uses” (Microbion Corporation, priority 2010, dated 2016)
Where two headings read alike, the source gives them in different places.

Experiments:
Bukholderia multivorans = test: Single-point BisEDT-antibiotic combination FICI; type: cell-based; conditions: Bmult 5665
Burkholderia cepacia = test: Single-point BisEDT-antibiotic combination FICI; type: cell-based; conditions: Bcep 1756
Escherichia coli = test: Single-point BisEDT-antibiotic combination FICI; type: cell-based
Pseudomonas aeruginosa = test: Single-point BisEDT-antibiotic combination FICI; type: cell-based; conditions: PA 1380
Acinetobacter baumanii = test: Single-point BisEDT-antibiotic combination FICI; type: cell-based; conditions: Abau 2594
P. aeruginosa = test: Checkerboard broth microdilution MIC and FICI; type: cell-based, Pseudomonas aeruginosa; conditions: Pseudomonas aeruginosa, compound alone, read-out: MIC (μg/mL) Alone
Method: (§1) The effects of combinations of microparticulate Bis-EDT and four Bis-EDT analogs prepared as described above, and other agents against representative strains of several Gram-negative pathogenic bacteria were tested. A modification of a common laboratory method was used to determine synergism (FICI≦0.5), enhancement (0.5<FICI≦1.0), antagonism (FICI>4.0) and indifference (1.0<FICI≦4.0) used fractional inhibitory concentrations (FICs) and FIC indices (FICI) (Eliopoulos G and R Moellering. 1991. Antimicrobial combinations. In Antibiotics in Laboratory Medicine, Third Edition, edited by V Lorian. Williams and Wilkins, Baltimore, Md., pp. 432-492; Odds, 2003 J. Antimicrob. Chemother. 52(1):1). The checkerboard technique was used to determine FIC indices and was employed in this study.
(§2) Stock solutions of all test articles were prepared at 40× the final target concentration in the appropriate solvent. […] The final drug concentrations in the FIC assay plates were set to bracket the MIC value of each agent for each test organism, unless the strain was totally resistant to the test agent. […] The test organisms were originally received from clinical sources, or from the American Type Culture Collection. Upon receipt, the isolates were streaked onto Tryptic Soy Agar II (TSA). Colonies were harvested from these plates and a cell suspension was prepared in an appropriate broth growth medium containing cryoprotectant. Aliquots were then frozen at −80° C. The frozen seeds of the organisms to be tested in a given assay were thawed, streaked for isolation onto TSA plates, and incubated at 35° C. All organisms were tested in Mueller Hinton II Broth (Becton Dickinson, Lot No. 9044411). The broth was prepared at 1.05× normal weight/volume to offset the 5% volume of the drugs in the final test plates.
(§3) Minimal Inhibitory Concentration (MIC) values were previously determined using the broth microdilution method for aerobic bacteria (Clinical and Laboratory Standards Institute (CLSI). Methods for Dilution Antimicrobial Susceptibility Tests for Bacteria That Grow Aerobically; Approved Standard—Eighth Edition. CLSI document M07-A8 [ISBN 1-56238-689-1]. Clinical and Laboratory Standards Institute, 940 West Valley Road, Suite 1400, Wayne, Pa. 19087-1898 USA, 2009.).
(§4) FIC values were determined using a broth microdilution method previously described (Sweeney et al., 2003 Antimicrob. Agents Chemother. 47(6):1902-1906). To prepare the test plates, automated liquid handlers (Multidrop 384, Labsystems, Helsinki, Finland; Biomek 2000 and Multimek 96, Beckman Coulter, Fullerton Calif.) were used to conduct serial dilutions and liquid transfers.
(§5) The appropriate wells of standard 96-well microdilution plates (Falcon 3918) were filled with 150 μL of the appropriate solvent in columns 2-12 using the Multidrop 384. Three hundred microliters of each secondary test drug was added to each well in Column 1 of the plates. These plates were used to prepare the drug “mother plates” which provided the serial drug dilutions for the drug combination plates. The Biomek 2000 was used to transfer 150 μL of each secondary drug solution (40×) from the wells in Column 1 of the mother plate and to make eleven 2-fold serial dilutions. Mother plates of Bis-EDT (and analogs) were serial diluted top to bottom by hand, using a multichannel pipette. Two mother plates, one for each secondary drug and one for Bis-EDT (or analogs), were combined to form a “checkerboard” pattern by transfer of equal volumes (using a multi-channel pipette) to the drug combination plate. Row H and Column 12 each contained serial dilutions of one of the agents alone for determination of the MIC.
(§6) The “daughter plates” were loaded with 180 μL of test medium using the Multidrop 384. Then, the Multimek 96 was used to transfer 10 μL of drug solution from each well of the drug combination mother plate to each corresponding well of the daughter plate in a single step.

Klebsiella pneumoniae = test: Single-point BisEDT-antibiotic combination FICI; type: cell-based; conditions: KP 1231
[1] = test system: Staphylococcus aureus (SA, MRSA); test: Single-point BisEDT-antibiotic combination FICI; type: cell-based
Enterococcus faecalis = test: Single-point BisEDT-antibiotic combination FICI; type: cell-based; conditions: E Fc 3121
[2] = test system: Streptococcus pneumoniae (SP, PRSP); test: Single-point BisEDT-antibiotic combination FICI; conditions: PRSP 5348
[3] = test system: Gram-negative pathogenic bacteria; test: Checkerboard broth microdilution MIC and FICI; type: cell-based; conditions: compound alone; for MIC: Klebsiella pneumoniae, read-out: MIC (μg/mL) Alone
Method: as §1, §2, §3, §4, §5, §6

| SMILES | FICI, single-point BisEDT-antibiotic combination (Bukholderia multivorans) | FICI, single-point BisEDT-antibiotic combination (Burkholderia cepacia) | FICI, single-point BisEDT-antibiotic combination (Escherichia coli; EC 102) | FICI, single-point BisEDT-antibiotic combination (Escherichia coli; EC 2232) | FICI, single-point BisEDT-antibiotic combination (Pseudomonas aeruginosa) | FICI, single-point BisEDT-antibiotic combination (Acinetobacter baumanii) | FICI, single-point BisEDT-antibiotic combination (Klebsiella pneumoniae) | FICI, single-point BisEDT-antibiotic combination ([1]; MRSA 773) | FICI, single-point BisEDT-antibiotic combination ([1]; SA 100) | FICI, single-point BisEDT-antibiotic combination (Enterococcus faecalis) | FICI, single-point BisEDT-antibiotic combination [2] | further results |
| --- | --- | --- | --- | --- | --- | --- | --- | --- | --- | --- | --- | --- |
| C[C@H]1[C@H](NC(=O)/C(=N\OC(C)(C)C(=O)O)c2csc(N)n2)C(=O)N1S(=O)(=O)O [Aztreonam] | 0.96 | 0.67 | 0.74 | 1.29 | 0.55 | 0.87 | 0.73 |  |  |  |  | MIC (P. aeruginosa; P. aeruginosa 103): 8 µg/mL; MIC (P. aeruginosa; P. aeruginosa 1381): 64 µg/mL; MIC (P. aeruginosa; P. aeruginosa 1384): 8 µg/mL; MIC (P. aeruginosa; P. aeruginosa 1474): 8 µg/mL; MIC (P. aeruginosa; P. aeruginosa 1479): 8 µg/mL; MIC (P. aeruginosa; P. aeruginosa 2566): 16 µg/mL; MIC (P. aeruginosa; P. aeruginosa 2568): 8 µg/mL |
| CN(C)[C@@H]1C(O)=C(C(N)=O)C(=O)[C@@]2(O)C(O)=C3C(=O)c4c(O)cccc4[C@@](C)(O)[C@H]3C[C@@H]12 [Tetracycline] | 1.12 | 1.96 | 0.62 | 0.79 | 1.29 | 1.12 | 1.29 | 1.23 | 0.89 | 0.92 | 0.34 |  |
| CCN1CCN(C(=O)N[C@@H](C(=O)N[C@@H]2C(=O)N3[C@@H]2SC(C)(C)[C@@H]3C(=O)O)c2ccccc2)C(=O)C1=O [Piperacillin] | 1.12 | 1.12 | 0.87 | 1.29 | 0.67 | 1.12 | 2.23 | 1.28 | 0.57 | 1.11 | 1.11 |  |
| C[C@@H]1O[C@@H]1P(=O)(O)O [Phosphomycin] | 1.23 | 1.29 |  | 1.96 | 1.86 | 1.12 | 1.02 | 0.61 |  | 1.23 | 1.45 |  |
| O=C(O)c1cn(C2CC2)c2cc(N3CCNCC3)c(F)cc2c1=O [Ciprofloxacin] | 2.29 | 2.23 | 1.14 |  | 2.75 | 1.04 |  |  |  |  |  |  |
| CO/N=C(\C(=O)N[C@@H]1C(=O)N2C(C(=O)O)=C(COC(C)=O)CS[C@H]12)c1csc(N)n1 [Cefotaxime] | 1.11 | 1.29 | 1.37 | 1.29 | 0.64 | 1.29 | 0.61 | 2.23 | 1.11 | 0.73 | 1.11 | MIC (μg/mL) Alone ([3]; K. pneumoniae 1355): 0.12 µg/mL; MIC (μg/mL) Alone ([3]; K. pneumoniae 2238): 8 µg/mL; MIC (μg/mL) Alone ([3]; K. pneumoniae 2549): 0.06 µg/mL; MIC ([3]; K. pneumoniae 1346): 0.06 µg/mL; MIC ([3]; K. pneumoniae 1355): 0.06 µg/mL; MIC ([3]; K. pneumoniae 2238): 16 µg/mL; MIC ([3]; K. pneumoniae 2546): 0.25 µg/mL; MIC ([3]; K. pneumoniae 2549): 0.12 µg/mL; MIC (P. aeruginosa; P. aeruginosa 103): 16 µg/mL |
| CC[C@H]1OC(=O)[C@H](C)[C@@H](O[C@H]2C[C@@](C)(OC)[C@@H](O)[C@H](C)O2)[C@H](C)[C@@H](O[C@@H]2O[C@H](C)C[C@H](N(C)C)[C@H]2O)[C@](C)(O)C[C@@H](C)C(=O)[C@H](C)[C@@H](O)[C@]1(C)O [Erythromycin] |  |  |  |  |  |  |  | 0.67 |  | 0.92 | 1.03 |  |
| Cc1onc(-c2ccccc2)c1C(=O)N[C@@H]1C(=O)N2[C@@H]1SC(C)(C)[C@@H]2C(=O)O [Oxacillin] |  |  |  |  |  |  |  | 2.28 |  | 0.92 | 1.03 |  |
| CO/N=C(\C(=O)N[C@@H]1C(=O)N2C(C(=O)O)=C(COC(N)=O)CS[C@H]12)c1ccco1 [Cefuroxime] |  |  |  |  |  |  |  | 4.23 | 1.11 | 1.11 | 1.03 |  |
